Measured values reported in US20190134005A1 (BioMarin Pharmaceutical Inc., priority 2016, published 2019).
Like-named read-outs stand apart in the source and are kept apart here.

Molecular target: T1, human CGT (Homo sapiens, UniProt Q16880)
T1 sequence (Q16880 21-541): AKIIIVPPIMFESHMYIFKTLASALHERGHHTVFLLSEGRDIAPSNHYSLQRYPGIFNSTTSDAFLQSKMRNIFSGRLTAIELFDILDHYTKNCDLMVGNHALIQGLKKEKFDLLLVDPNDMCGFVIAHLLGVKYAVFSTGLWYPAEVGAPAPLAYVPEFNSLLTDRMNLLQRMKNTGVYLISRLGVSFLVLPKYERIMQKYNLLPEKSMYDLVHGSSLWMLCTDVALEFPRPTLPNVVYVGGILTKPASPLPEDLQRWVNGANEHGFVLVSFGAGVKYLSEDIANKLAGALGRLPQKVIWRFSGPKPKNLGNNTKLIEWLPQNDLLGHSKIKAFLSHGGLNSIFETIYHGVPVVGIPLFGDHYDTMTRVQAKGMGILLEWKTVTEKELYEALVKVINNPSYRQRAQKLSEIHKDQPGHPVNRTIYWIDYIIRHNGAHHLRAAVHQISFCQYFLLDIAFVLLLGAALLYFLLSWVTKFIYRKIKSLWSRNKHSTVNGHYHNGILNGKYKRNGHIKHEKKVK
Test: Assay 1: CGT Enzymatic Assay (RapidFire/MS/MS, 0.01% Tween 80)
Format: biochemical
Details: Table 1, Compounds of Formula (I) and Formula (II), CGT enzymatic assay, read-out: IC50

[1] = C6-NBD-dihydro-galactosylceramide readout

Row | Structure (SMILES) | IC50 [1] [nM] | IC50 [nM]
1 | Cc1ccc(N2C(=O)N(c3ccc(Cl)cc3)C(O)(c3cccc(OC(F)(F)F)c3)C2(C)C)cc1 (centres unmarked) [Example 318, 1-(4-chlorophenyl)-5-hydroxy-4,4-dimethyl-3-(p-tolyl)-5-(3-(trifluoromethoxy)phenyl)imidazolidin-2-one] | < 1000 | –
2 | CCC1N(c2ccc(F)cc2)C(=O)N(c2ccc(F)cc2)C1(O)c1cccc(C(F)(F)F)c1 (centres unmarked) [Compound 139, 5-ethyl-1,3-bis(4-fluorophenyl)-4-hydroxy-4-(3-(trifluoromethyl)phenyl)imidazolidin-2-one] | – | 1000 to 10000
3 | O=C1N(c2ccc(I)cc2)C(=O)C(O)(c2ccccc2)N1c1ccc(I)cc1 (centres unmarked) [Example 203, 5-hydroxy-1,3-bis(4-iodophenyl)-5-phenylimidazolidine-2,4-dione] | – | 10000 to 50000
4 | CCCC1(C)N(c2ccc(Cl)cc2)C(=O)N(c2ccc(Cl)cc2)C1(O)c1cccc(OC(F)(F)F)c1 (centres unmarked) [Example 170, 1,3-bis(4-chlorophenyl)-4-hydroxy-5-methyl-5-propyl-4-(3-(trifluoromethoxy)phenyl)imidazolidin-2-one] | – | < 1000
5 | CN(C)CC1N(c2ccc(Cl)cc2)C(=O)N(c2ccc(Cl)cc2)C1(O)c1cccc(OC(F)(F)F)c1 (centres unmarked) [Example 166, 1,3-bis(4-chlorophenyl)-5-((dimethylamino)methyl)-4-hydroxy-4-(3-(trifluoromethoxy)phenyl)imidazolidin-2-one] | – | < 1000
6 | CCCC1N(c2ccc(Cl)cc2)C(=O)N(c2ccc(Cl)cc2)C1(O)CCC (centres unmarked) [Compound 122, 1,3-bis(4-chlorophenyl)-4-hydroxy-4,5-dipropylimidazolidin-2-one] | – | 10000 to 50000
7 | N#Cc1ccc(N2C(=O)N(c3ccccc3)C3(CCC3)C2(O)c2cccc(OC(F)(F)F)c2)cc1 (centres unmarked) [Example 335, 4-(8-hydroxy-6-oxo-5-phenyl-8-(3-(trifluoromethoxy)phenyl)-5,7-diazaspiro[3.4]octan-7-yl)benzonitrile] | < 1000 | –
8 | Cc1cccc(N2C(=O)N(c3cccc(C)c3)C(O)(c3cccc(OC(F)(F)F)c3)C2C)c1 (centres unmarked) [Compound 107, 4-hydroxy-5-methyl-1,3-di-m-tolyl-4-(3-(trifluoromethoxy)phenyl)imidazolidin-2-one] | – | < 1000
9 | N#Cc1cccc(C2(O)N(c3ccc(Cl)cc3)C(=O)N(c3ccc(Cl)cc3)C23CC3)c1 (centres unmarked) [Example 226, 3-(4,6-bis(4-chlorophenyl)-7-hydroxy-5-oxo-4,6-diazaspiro[2.4]heptan-7-yl)benzonitrile] | – | < 1000
10 | CC1N(c2ccccc2)C(=O)N(c2ccccc2)C1(O)c1cccc(OC(F)(F)F)c1 (centres unmarked) [Example 230, 4-hydroxy-5-methyl-1,3-diphenyl-4-(3-(trifluoromethoxy)phenyl)imidazolidin-2-one] | – | 1000 to 10000
11 | CCCC1N(c2ccc(Br)cc2)C(=O)N(c2ccc(Br)cc2)C1(O)c1cccc(CC)c1 (centres unmarked) [Compound 88, 1,3-bis(4-bromophenyl)-4-(3-ethylphenyl)-4-hydroxy-5-propylimidazolidin-2-one] | – | < 1000
12 | O=C1N(c2ccc(Cl)cc2)C(C2COC2)C(O)(c2cccc(OC(F)(F)F)c2)N1c1ccc(Cl)cc1 (centres unmarked) [Compound 237, 1,3-bis(4-chlorophenyl)-4-hydroxy-5-(oxetan-3-yl)-4-(3-(trifluoromethoxy)phenyl)imidazolidin-2-one] | – | < 1000
13 | CCCc1c(-c2cccc(OC(F)(F)F)c2)n(-c2ccc(Br)cc2)c(=O)n1-c1ccc(Br)cc1 [Compound 248, 1,3-bis(4-bromophenyl)-4-propyl-5-(3-(trifluoromethoxy)phenyl)-1,3-dihydro-2H-imidazol-2-one] | – | < 1000
14 | Cc1ccc(N2CC(O)(c3ccccc3)N(c3ccc(C)cc3)C2=O)cc1 (centres unmarked) [Example 17, 4-hydroxy-4-phenyl-1,3-di-p-tolylimidazolidin-2-one] | – | 1000 to 10000
15 | COc1ccc(N2C(=O)N(c3ccc(OC)cc3)C(O)(c3cccc(C#N)c3)C2C(C)C)cc1 (centres unmarked) [Example 330, 3-(4-hydroxy-5-isopropyl-1,3-bis(4-methoxyphenyl)-2-oxoimidazolidin-4-yl)benzonitrile] | < 1000 | –
16 | O=c1n(-c2ccc(Br)cc2)c(-c2ccccc2)c(C2CC2)n1-c1ccc(Br)cc1 [Compound 249, 1,3-bis(4-bromophenyl)-4-cyclopropyl-5-phenyl-1,3-dihydro-2H-imidazol-2-one] | – | < 1000
17 | O=C1N(c2ccc(Cl)cc2)C2(CC(F)C2)C(O)(c2cccc(OC(F)(F)F)c2)N1c1ccc(Cl)cc1 (centres unmarked) [Compound 240, 5,7-bis(4-chlorophenyl)-2-fluoro-8-hydroxy-8-(3-(trifluoromethoxy)phenyl)-5,7-diazaspiro[3.4]octan-6-one] | – | < 1000
18 | CC1(c2cccc(C(F)(F)F)c2)C(O)N(c2ccc(Cl)cc2)C(=O)N1c1ccc(Cl)cc1 (centres unmarked) [Example 190, 1,3-bis(4-chlorophenyl)-5-hydroxy-4-methyl-4-(3-(trifluoromethyl)phenyl)imidazolidin-2-one] | – | < 1000
19 | CC1(C)N(c2ccc(Br)cc2)C(=O)N(c2ccc(Br)cc2)C1(O)c1ccccc1 (centres unmarked) [Compound 120, 1,3-bis(4-bromophenyl)-4-hydroxy-5,5-dimethyl-4-phenylimidazolidin-2-one] | – | < 1000
20 | O=C1N(c2ccc(Br)cc2)C(=O)C(O)(c2ccccc2)N1c1ccc(Br)cc1 (centres unmarked) [Compound 141, 1,3-bis(4-bromophenyl)-5-hydroxy-5-phenylimidazolidine-2,4-dione] | – | 10000 to 50000
21 | COc1ccc(C2(O)C(=O)N(c3ccc(Br)cc3)C(=O)N2c2ccc(Br)cc2)nc1 (centres unmarked) [Example 208, 1,3-bis(4-bromophenyl)-5-hydroxy-5-(5-methoxypyridin-2-yl)imidazolidine-2,4-dione] | – | 50000 to 100000
22 | COCC1(C)N(c2ccc(Cl)cc2)C(=O)N(c2ccc(Cl)cc2)C1(O)c1cccc(OC(F)(F)F)c1 (mixture of isomers) [Compound 296, 1,3-bis(4-chlorophenyl)-4-hydroxy-5-(methoxymethyl)-5-methyl-4-(3-(trifluoromethoxy)phenyl)imidazolidin-2-one] | < 1000 | –
23 | Cc1ccc(N2C(=O)N(c3ccc(C)cc3)C(O)(c3cccc(OC(F)(F)F)c3)C23CCC3)cc1 (centres unmarked) [Compound 239, 8-hydroxy-5,7-di-p-tolyl-8-(3-(trifluoromethoxy)phenyl)-5,7-diazaspiro[3.4]octan-6-one] | – | < 1000
24 | Cc1cccc(C2(O)C(C)N(c3ccc(Cl)cc3)C(=O)N2c2ccc(Cl)cc2)c1 (centres unmarked) [Example 36] | – | < 1000
25 | Cc1ccc(N2C(=O)N(c3ccc(Cl)cc3)C3(CCC3)C2(O)c2cccc(OC(F)(F)F)c2)cc1 (centres unmarked) [Example 333, 5-(4-chlorophenyl)-8-hydroxy-7-(p-tolyl)-8-(3-(trifluoromethoxy)phenyl)-5,7-diazaspiro[3.4]octan-6-one] | < 1000 | –

Second part, the molecule after the results:

Row | IC50 [1] [nM] | IC50 [nM] | Structure (SMILES)
26 | – | 10000 to 50000 | O=C1N(c2ccc(Br)cc2)[C@@H](c2ccccc2)C(O)(c2ccccc2)N1c1ccc(Br)cc1 (stereo partly drawn) [Compound 86-1, (5S)-1,3-bis(4-bromophenyl)-4-hydroxy-4,5-diphenylimidazolidin-2-one]
27 | – | 1000 to 10000 | CC[C@@]1(C)N(c2ccc(Cl)cc2)C(=O)N(c2ccc(Cl)cc2)C1(O)c1cccc(OC(F)(F)F)c1 (single isomer, unassigned) [Example 163-1]
28 | – | < 1000 | C[C@H]1N(c2ccc(C#N)cc2)C(=O)N(c2ccc(C#N)cc2)C1(O)c1cccc(OC(F)(F)F)c1 (stereo partly drawn) [Example 180-2, 4,4′-((5R)-4-hydroxy-5-methyl-2-oxo-4-(3-(trifluoromethoxy)phenyl)imidazolidine-1,3-diyl)dibenzonitrile]
29 | – | 1000 to 10000 | C[C@H]1N(c2ccc(Cl)cc2)C(=O)N(c2ccc(Cl)cc2)C1(O)c1cccc(C(C)(C)O)c1 (stereo partly drawn) [Compound 140-2, (5R)-1,3-bis(4-chlorophenyl)-4-hydroxy-4-(3-(2-hydroxypropan-2-yl)phenyl)-5-methylimidazolidin-2-one]
30 | – | > 50000 | C[C@]1(c2ccccc2)N(c2ccc(Cl)cc2)C(=O)N(c2ccc(Cl)cc2)[C@]1(O)c1ccccc1 [Compound 121-3, (4S,5R)-1,3-bis(4-chlorophenyl)-4-hydroxy-5-methyl-4,5-diphenylimidazolidin-2-one]
31 | < 1000 | – | COC[C@@]1(C)N(c2ccc(Cl)cc2)C(=O)N(c2ccc(Cl)cc2)[C@]1(O)c1cccc(OC(F)(F)F)c1 [Compound 296-4, (4S,5R)-1,3-bis(4-chlorophenyl)-4-hydroxy-5-(methoxymethyl)-5-methyl-4-(3-(trifluoromethoxy)phenyl)imidazolidin-2-one]
32 | – | < 1000 | C[C@@]1(C(F)(F)F)N(c2ccc(Cl)cc2)C(=O)N(c2ccc(Cl)cc2)C1(O)c1cccc(OC(F)(F)F)c1 (single isomer, unassigned) [Example 159-2]
33 | – | < 1000 | CCC[C@@H]1N(c2ccc(Cl)cc2)C(=O)N(c2ccc(Cl)cc2)C1(O)c1cccc(OC(F)(F)F)c1 (stereo partly drawn) [Compound 91-1, (5S)-1,3-bis(4-chlorophenyl)-4-hydroxy-5-propyl-4-(3-(trifluoromethoxy)phenyl)imidazolidin-2-one]
34 | – | < 1000 | CCC[C@H]1N(c2ccc(Br)cc2)C(=O)N(c2ccc(Br)cc2)C1(O)c1cccc(OC(F)(F)F)c1 (stereo partly drawn) [Compound 112-2, (5R)-1,3-bis(4-bromophenyl)-4-hydroxy-5-propyl-4-(3-(trifluoromethoxy)phenyl)imidazolidin-2-one]
35 | – | < 1000 | C[C@@]1(c2cccc(C(F)(F)F)c2)C(O)N(c2ccc(Br)cc2)C(=O)N1c1ccc(Br)cc1 (stereo partly drawn) [Example 219-2, (4R)-1,3-bis(4-bromophenyl)-5-hydroxy-4-methyl-4-(3-(trifluoromethyl)phenyl)imidazolidin-2-one]
